Reference: patent US12509424B2, “Compound and composition as PDGF receptor kinase inhibitor” (NIPPON SHINYAKU CO., LTD., priority 2019, dated 2025)
pIC50: −log10 of the molar value. Like-named read-outs stand apart in the source and are kept apart here.

Legend:
PDGFR-β = PDGFR-β (Homo sapiens (Human), UniProt P09619); experiment: PDGFR-β tyrosine kinase inhibitory action (HTRF KinEASE-TK); type: biochemical; conditions: PDGFR-β enzyme 1 ng/μL, 30° C. for 30 minutes; read-out: PDGF-β IC50
How it was run: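 Recombinant PDGFR-β at 1 ng/μL final with TK substrate-3-biotin in a substrate solution containing 0.6 μM ATP; buffer 50 mM HEPES pH 7.0, 5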

[1] = biological target: TEL-PDGFRβ fusion gene transfected cells (Ba/F3) (Homo sapiens, UniProt P09619); experiment: Suppression of proliferation of TEL-PDGFRβ fusion gene transfected Ba/F3 cells; type: cell-based; conditions: TEL-PDGFRβ expressing Ba/F3 cells, 72 hours, final concentration 0.1 to 10,000 nM; read-out: PDGFR β/BaF3 proliferation inhibition (IC50)
Text: (§1) 2. Preparation of Test Substance
(§2) 4. Analysis of Measurement Results

[2] = test system: pulmonary arterial smooth muscle cells; experiment: Suppression of proliferation of pulmonary arterial smooth muscle cells (PDGF-BB stimulation, BrdU); type: cell-based; conditions: read-out: Human normal PASMC proliferation suppression (PDGF stimulation_IC50)
How it was run: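 Healthy human pulmonary arterial smooth muscle cells, serum-starved a day in 0.1% FBS medium, were treated with compound at final 3 to 10,000 nM plus human PDGF-BB (final 10 ng/mL) and BrdU. After 1 day of culture, BrdU uptake was measured with an anti-BrdU antibody.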

[3] = biological target: TEL-KIT fusion gene transfected cells (Ba/F3) (Homo sapiens, UniProt P10721); experiment: Suppression of proliferation of TEL-KIT fusion gene transfected Ba/F3 cells; conditions: read-out: KIT/BaF3 proliferation inhibition (IC50); TEL-KIT expressing Ba/F3 cells, 72 hours, final concentration 0.1 to 10,000 nM;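 further: viable cells quantified via formazan from tetrazolium reduction, inhibition scaled with 0.1% DMSO control as 0% and medium-only blank as 100%, IC50 from two-parameter logistic fit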
[4] = test system: TEL-PDGFRβ fusion gene transfected cells (Ba/F3); experiment: Suppression of proliferation of TEL-PDGFRβ fusion gene transfected Ba/F3 cells; type: cell-based, human; conditions: TEL-PDGFRβ expressing Ba/F3 cells, 72 hours, final concentration 0.1 to 10,000 nM; read-out: PDGFR β/BaF3 proliferation inhibition (IC50)
Text: as §1, §2

[5] = biological target: TEL-KIT fusion gene transfected cells (Ba/F3); experiment: Suppression of proliferation of TEL-KIT fusion gene transfected Ba/F3 cells; conditions: read-out: KIT/BaF3 proliferation inhibition (IC50); TEL-KIT expressing Ba/F3 cells, 72 hours, final concentration 0.1 to 10,000 nM;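 further: viable cells quantified via formazan from tetrazolium reduction, inhibition scaled with 0.1% DMSO control as 0% and medium-only blank as 100%, IC50 from two-parameter logistic fit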
[6] = PASMC, 24 h, healthy human derived pulmonary arterial smooth muscle cells, human PDGF-BB 10 ng/mL stimulation, BrdU uptake after 1 day, test substance final concentration 3 to 10,000 nM
[7] = healthy human derived pulmonary arterial smooth muscle cells, human PDGF-BB 10 ng/mL stimulation, BrdU uptake after 1 day, test substance final concentration 3 to 10,000 nM
[8] = PASMC, human PDGF-BB 10 ng/mL, BrdU uptake, final concentration 3 to 10,000 nM

Sequence of TEL-KIT fusion gene transfected cells (Ba/F3) (Homo sapiens, UniProt P10721) (P10721 26-976 limits assumed, change not shown): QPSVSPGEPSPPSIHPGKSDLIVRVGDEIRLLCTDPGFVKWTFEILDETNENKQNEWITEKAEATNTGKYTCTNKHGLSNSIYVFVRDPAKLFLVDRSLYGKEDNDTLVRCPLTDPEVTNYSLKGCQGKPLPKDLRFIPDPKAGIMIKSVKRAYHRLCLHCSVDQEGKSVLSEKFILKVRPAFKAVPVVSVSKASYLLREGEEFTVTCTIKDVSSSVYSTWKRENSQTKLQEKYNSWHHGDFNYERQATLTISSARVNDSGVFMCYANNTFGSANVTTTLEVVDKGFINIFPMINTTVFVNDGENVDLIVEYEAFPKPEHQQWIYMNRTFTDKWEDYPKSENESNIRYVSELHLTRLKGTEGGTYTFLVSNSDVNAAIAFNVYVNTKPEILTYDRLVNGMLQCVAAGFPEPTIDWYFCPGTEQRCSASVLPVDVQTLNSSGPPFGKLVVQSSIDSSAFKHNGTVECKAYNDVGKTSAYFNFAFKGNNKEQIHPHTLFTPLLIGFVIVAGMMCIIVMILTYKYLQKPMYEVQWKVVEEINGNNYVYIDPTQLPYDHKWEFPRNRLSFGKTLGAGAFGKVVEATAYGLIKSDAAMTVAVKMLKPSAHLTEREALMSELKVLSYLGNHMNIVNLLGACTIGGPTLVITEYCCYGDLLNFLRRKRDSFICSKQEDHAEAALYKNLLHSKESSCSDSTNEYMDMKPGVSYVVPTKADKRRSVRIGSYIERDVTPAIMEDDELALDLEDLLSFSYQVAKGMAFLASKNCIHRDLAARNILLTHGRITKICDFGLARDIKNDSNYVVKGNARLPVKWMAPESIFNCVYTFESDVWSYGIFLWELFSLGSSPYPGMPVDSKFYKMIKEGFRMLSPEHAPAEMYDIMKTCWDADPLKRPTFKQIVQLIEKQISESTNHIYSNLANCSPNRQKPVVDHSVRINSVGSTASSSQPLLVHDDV
Sequence of TEL-KIT fusion gene transfected cells (Ba/F3) (P10721 26-976 limits assumed, change not shown): as above
Sequence of PDGFR-β (P09619 33-1106): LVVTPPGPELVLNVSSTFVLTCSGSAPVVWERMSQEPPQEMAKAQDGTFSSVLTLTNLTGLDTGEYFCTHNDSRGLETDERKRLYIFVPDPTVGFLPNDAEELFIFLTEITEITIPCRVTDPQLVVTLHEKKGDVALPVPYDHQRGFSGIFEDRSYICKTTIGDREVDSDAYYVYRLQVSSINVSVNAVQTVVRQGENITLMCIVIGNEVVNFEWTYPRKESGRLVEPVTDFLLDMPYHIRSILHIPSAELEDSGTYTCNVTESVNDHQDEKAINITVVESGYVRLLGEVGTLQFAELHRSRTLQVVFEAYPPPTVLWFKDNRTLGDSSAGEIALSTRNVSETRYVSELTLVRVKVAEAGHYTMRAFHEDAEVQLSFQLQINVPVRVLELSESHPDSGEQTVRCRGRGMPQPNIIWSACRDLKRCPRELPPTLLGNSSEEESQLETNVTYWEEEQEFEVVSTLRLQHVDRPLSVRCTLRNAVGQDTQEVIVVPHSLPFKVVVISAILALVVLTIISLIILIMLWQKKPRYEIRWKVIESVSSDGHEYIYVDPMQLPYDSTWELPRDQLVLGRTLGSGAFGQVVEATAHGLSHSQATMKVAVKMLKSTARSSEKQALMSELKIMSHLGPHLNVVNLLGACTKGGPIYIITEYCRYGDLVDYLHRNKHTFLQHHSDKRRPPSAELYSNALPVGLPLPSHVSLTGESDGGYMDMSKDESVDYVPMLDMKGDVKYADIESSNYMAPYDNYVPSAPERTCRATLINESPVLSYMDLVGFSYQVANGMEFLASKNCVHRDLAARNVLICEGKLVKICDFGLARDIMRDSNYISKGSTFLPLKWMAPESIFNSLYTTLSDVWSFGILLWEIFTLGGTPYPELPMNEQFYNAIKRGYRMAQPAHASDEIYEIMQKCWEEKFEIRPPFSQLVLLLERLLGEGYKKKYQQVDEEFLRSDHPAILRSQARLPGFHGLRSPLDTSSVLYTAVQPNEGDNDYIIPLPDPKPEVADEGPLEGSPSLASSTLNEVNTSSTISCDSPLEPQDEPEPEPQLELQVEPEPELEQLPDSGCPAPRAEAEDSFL
Sequence of TEL-PDGFRβ fusion gene transfected cells (Ba/F3) (Homo sapiens, UniProt P09619) (P09619 33-1106 limits assumed, change not shown): as the sequence (P09619 33-1106) above

Compound | pIC50 (PDGFR-β) | pIC50 [1] | pIC50 [2, 6] | pIC50 [3] | pIC50 [2, 7] | pIC50 [4] | pIC50 [5] | pIC50 [2, 8]
Cc1ccc(C(=O)N[C@H]2CCCC[C@@H]2O)cc1C#Cc1cncc(-c2ccccc2)c1 [Example 60, N-[(1S,2S)-2-hydroxycyclohexyl]-4-methyl-3-[(5-phenylpyridin-3-yl)ethynyl]benzamide] | 7.34 | 8.23 | 7.59 | 6.39 | – | – | – | –
3-{[([3,3′-bipyridin]-5-yl)methyl]amino}-N-[(1S,2S)-2-hydroxycyclohexyl]-4-methylbenzamide [Example 93] | 6.44 | 7.35 | – | 5.21 | 6.59 | – | – | –
Cc1ccc(C(=O)N[C@H]2CCCC[C@@H]2O)cc1C#Cc1cncc(-c2ccccc2)n1 [Example 75, N-[(1S,2S)-2-hydroxycyclohexyl]-4-methyl-3-[(6-phenylpyrazin-2-yl)ethynyl]benzamide] | 7.82 | 8.35 | 7.89 | 6.52 | – | – | – | –
Cc1ccc(CNc2cncc(-c3ncccn3)c2)cc1NC(=O)N[C@@H]1CCCC[C@@H]1O [Example 163, N-[(1R,2S)-2-hydroxycyclohexyl]-N′-[2-methyl-5-({[5-(pyrimidin-2-yl)pyridin-3-yl]amino}methyl)phenyl]urea] | 6.59 | – | – | 5.59 | 6.82 | 6.70 | – | –
Cc1ccc(C(=O)N[C@H]2CCCC[C@@H]2O)cc1/C=C/c1cncc(-c2ccccc2)c1 [Example 173, N-[(1S,2S)-2-hydroxycyclohexyl]-4-methyl-3-[(E)-2-(5-phenylpyridin-3-yl)ethenyl]benzamide] | 7.27 | 8.34 | – | 6.15 | – | – | – | –
O=C(Nc1cccc(CNc2cncc(-c3ncccn3)c2)c1)N[C@@H]1CCCC[C@@H]1O [Example 159, N-[(1R,2S)-2-hydroxycyclohexyl]-N′-[3-({[5-(pyrimidin-2-yl)pyridin-3-yl]amino}methyl)phenyl]urea] | 7.59 | – | 7.68 | – | – | 8.77 | 6.42 | –
Cc1ccc(C(=O)N[C@H]2CCCC[C@@H]2O)cc1C#Cc1cncc(-c2cccc(F)c2)n1 [Example 70, 3-{[6-(3-fluorophenyl)pyrazin-2-yl]ethynyl}-N-[(1S,2S)-2-hydroxycyclohexyl]-4-methylbenzamide] | 7.70 | – | 7.30 | – | – | 8.74 | 6.52 | –
Cc1ccc(C(=O)N[C@H]2CCCC[C@@H]2O)cc1NC(=O)c1cncc(OC(C)C)c1 [Example 7, N-(5-{[(1S,2S)-2-hydroxycyclohexyl]carbamoyl}-2-methylphenyl)-5-[(propan-2-yl)oxy]pyridine-3-carboxamide] | 6.77 | – | – | – | – | 7.37 | 5.72 | 6.82
Cc1ccc(C(=O)N[C@H]2CCCC[C@@H]2O)cc1NC(=O)c1cncc(-c2ccccc2C)c1 [Example 12, N-(5-{[(1S,2S)-2-hydroxycyclohexyl]carbamoyl}-2-methylphenyl)-5-(2-methylphenyl)pyridine-3-carboxamide] | 6.77 | – | – | – | – | 7.46 | 6.10 | 7.19
Cc1ccc(C(=O)N[C@H]2CCCC[C@@H]2O)cc1NCc1cncc(-c2ncccn2)c1 [Example 95, N-[(1S,2S)-2-hydroxycyclohexyl]-4-methyl-3-({[5-(pyrimidin-2-yl)pyridin-3-yl]methyl}amino)benzamide] | 6.92 | – | 7.02 | – | – | 8.24 | 6.00 | –
Cc1ccc(C(=O)N[C@H]2CCCC[C@@H]2O)cc1Nc1ccnc(-c2cncc3ccccc23)n1 [Example 79, N-[(1S,2S)-2-hydroxycyclohexyl]-3-{[2-(isoquinolin-4-yl)pyrimidin-4-yl]amino}-4-methylbenzamide] | 6.92 | – | 6.77 | – | – | 7.34 | 5.70 | –
Cc1ccc(C(=O)N[C@H]2CCCC[C@@H]2O)cc1C#Cc1ccc(N)nc1 [Example 65, 3-[(6-aminopyridin-3-yl)ethynyl]-N-[(1S,2S)-2-hydroxycyclohexyl]-4-methylbenzamide] | 7.03 | – | 7.22 | – | – | 7.85 | 6.57 | –
Cc1ccc(C(=O)N[C@H]2CCCC[C@@H]2O)cc1NC(=O)c1cncc(OC2CC(F)(F)C2)c1 [Example 47, 5-[(3,3-difluorocyclobutyl)oxy]-N-(5-{[(1S,2S)-2-hydroxycyclohexyl]carbamoyl}-2-methylphenyl)pyridine-3-carboxamide] | 6.41 | – | 6.46 | – | – | 7.12 | 5.15 | –
Cc1ccc(C(=O)N[C@H]2CCCC[C@@H]2O)cc1C#Cc1cncc(C2CC2)n1 [Example 68, 3-[(6-cyclopropylpyrazin-2-yl)ethynyl]-N-[(1S,2S)-2-hydroxycyclohexyl]-4-methylbenzamide] | 7.10 | – | 7.14 | – | – | 7.80 | 5.70 | –
Cc1ccc(C(=O)N[C@H]2CCCC[C@@H]2O)cc1C#Cc1cncc(-c2ccccn2)c1 [Example 66, 3-[([2,3′-bipyridin]-5′-yl)ethynyl]-N-[(1S,2S)-2-hydroxycyclohexyl]-4-methylbenzamide] | 8.27 | – | 7.52 | – | – | 8.60 | 7.00 | –
O=C(Nc1ccc(F)c(CNc2cncc(-c3ncccn3)c2)c1)N[C@@H]1CCCC[C@@H]1O [Example 161, N-[4-fluoro-3-({[5-(pyrimidin-2-yl)pyridin-3-yl]amino}methyl)phenyl]-N′-[(1R,2S)-2-hydroxycyclohexyl]urea] | 7.80 | – | 6.96 | – | – | 8.32 | < 5.00 | –
Cc1ccc(NC(=O)N[C@@H]2CCCC[C@@H]2O)cc1CNc1cncc(-c2ncccn2)c1 [Example 162, N-[(1R,2S)-2-hydroxycyclohexyl]-N′-[4-methyl-3-({[5-(pyrimidin-2-yl)pyridin-3-yl]amino}methyl)phenyl]urea] | 8.59 | – | 7.44 | – | – | 8.96 | 6.57 | –
Cc1ccc(C(=O)N[C@H]2CCCC[C@@H]2O)cc1N[C@@H](C)c1cncc(C#Cc2ccccc2)c1 [Example 86, N-[(1S,2S)-2-hydroxycyclohexyl]-4-methyl-3-({(1S)-1-[5-(phenylethynyl)pyridin-3-yl]ethyl}amino)benzamide] | 6.64 | – | 6.55 | – | – | 7.38 | 5.77 | –
O=C(N[C@H]1CCCC[C@@H]1O)c1ccc(Cl)c(C#Cc2cncc(Br)c2)c1 [Example 57, 3-[(5-bromopyridin-3-yl)ethynyl]-4-chloro-N-[(1S,2S)-2-hydroxycyclohexyl]benzamide] | 7.29 | – | 6.38 | – | – | 6.36 | 5.16 | –
Cc1ccc(C(=O)N[C@H]2CCCC[C@@H]2O)cc1CNc1cncc(-c2cccnc2)c1 [Example 146, 3-{[([3,3′-bipyridin]-5-yl)amino]methyl}-N-[(1S,2S)-2-hydroxycyclohexyl]-4-methylbenzamide] | 6.68 | – | 7.36 | – | – | 7.66 | 6.14 | –
Cc1ccc(C(=O)N[C@H](CO)c2ccccc2)cc1NC(=O)c1cncc(-c2ccccc2)c1 [Example 6, N-(5-{[(1S)-2-hydroxy-1-phenylethyl]carbamoyl}-2-methylphenyl)-5-phenylpyridine-3-carboxamide] | 7.92 | – | – | – | – | 7.85 | 6.77 | 7.64
Cc1ccc(C(=O)N[C@H]2CCCC[C@@H]2O)cc1NC(=O)c1cncc(-c2ccc(C3CC3)cc2)c1 [Example 43, 5-(4-cyclopropylphenyl)-N-(5-{[(1S,2S)-2-hydroxycyclohexyl]carbamoyl}-2-methylphenyl)pyridine-3-carboxamide] | 7.64 | – | 7.14 | – | – | 7.77 | 6.19 | –
Cc1ccc(C(=O)N[C@H]2CCCC[C@@H]2O)cc1NC(=O)c1cncc(-c2ccccc2Cl)c1 [Example 13, 5-(2-chlorophenyl)-N-(5-{[(1S,2S)-2-hydroxycyclohexyl]carbamoyl}-2-methylphenyl)pyridine-3-carboxamide] | 6.85 | – | – | – | – | 7.77 | 6.10 | 7.00
